Laboratory results taken from patent US11787769B2 (priority 2019, dated 2023).
Where two headings read alike, the source gives them in different places.

Columns and labels:
[1] = biological target: CYP3A4 (Homo sapiens, UniProt P08684); assay: biochemical
[2] = biological target: CYP2C9 (Homo sapiens, UniProt P11712); assay: biochemical
[3] = system: influenza A virus (HA of H5N1, Goose/Qinghai/59/05); assay: microbe, parasite or virus in culture; assay type: cell-based; conditions: Influenza A virus
[4] = system: PR8-NS1-Gluc virus; assay: microbe, parasite or virus in culture; assay type: cell-based, influenza A PR8
[5] = Hepatic metabolic stability in mouse liver microsomes; conditions: mouse LM, in the presence of NADPH
[6] = system: PR8-PB2-Gluc, influenza A/Puerto Rico/8/1934 (PR8) H1N1 virus; assay: microbe, parasite or virus in culture; assay type: cell-based; conditions: Influenza A virus, MDCK, read-out: EC50 (nM), antiviral activity in the infectious IAV
[7] = Hepatic metabolic stability in human liver microsomes; conditions: human LM, in the presence of NADPH
[8] = Pharmacokinetic analysis of plasma and liver levels in BALB/c mice
[9] = Influenza A virus, PR8, MDCK, 48 h

CYP2C9, sequence (P11712 whole entry): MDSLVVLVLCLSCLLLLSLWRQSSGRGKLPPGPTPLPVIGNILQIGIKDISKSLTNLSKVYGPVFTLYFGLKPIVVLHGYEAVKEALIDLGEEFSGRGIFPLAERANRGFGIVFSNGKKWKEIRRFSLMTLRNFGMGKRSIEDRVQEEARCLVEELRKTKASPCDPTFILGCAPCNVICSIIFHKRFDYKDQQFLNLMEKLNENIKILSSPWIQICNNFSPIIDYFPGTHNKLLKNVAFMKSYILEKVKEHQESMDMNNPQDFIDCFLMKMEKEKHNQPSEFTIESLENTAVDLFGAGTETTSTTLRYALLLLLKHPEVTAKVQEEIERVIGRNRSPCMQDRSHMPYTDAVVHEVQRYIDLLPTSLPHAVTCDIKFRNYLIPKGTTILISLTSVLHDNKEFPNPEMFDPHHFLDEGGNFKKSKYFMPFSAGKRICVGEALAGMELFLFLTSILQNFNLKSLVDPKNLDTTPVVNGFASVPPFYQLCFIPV
CYP3A4, sequence (P08684 whole entry): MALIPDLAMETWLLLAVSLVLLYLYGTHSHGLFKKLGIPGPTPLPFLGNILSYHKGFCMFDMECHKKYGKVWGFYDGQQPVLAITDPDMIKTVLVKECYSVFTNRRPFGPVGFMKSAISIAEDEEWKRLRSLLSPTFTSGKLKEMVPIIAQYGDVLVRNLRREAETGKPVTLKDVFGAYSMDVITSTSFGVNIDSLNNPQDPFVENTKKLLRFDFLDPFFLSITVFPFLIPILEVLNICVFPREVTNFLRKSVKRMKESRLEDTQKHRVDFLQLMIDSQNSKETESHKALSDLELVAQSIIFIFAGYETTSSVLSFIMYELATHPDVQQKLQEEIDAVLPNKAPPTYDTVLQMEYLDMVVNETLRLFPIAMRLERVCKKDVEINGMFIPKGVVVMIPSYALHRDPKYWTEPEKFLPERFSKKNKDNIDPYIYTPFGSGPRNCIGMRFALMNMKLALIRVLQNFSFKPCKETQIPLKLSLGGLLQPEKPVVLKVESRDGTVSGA

## CC(C)(C)N1CCC(NC(=O)c2ccc(C(F)(F)F)cc2Cl)CC1 [Compound 16, N-(1-(tert-Butyl)piperidin-4-yl)-2-chloro-4-(trifluoromethyl)benzamide]
[1]
  IC50: > 100 µM
[2]
  IC50: > 100 µM
[3]; H5N1, A549, 12.5 μM, read-out: H5N1 pseudotype assay % inhibition at 12.5 μM
  inhibition at 12.5 µM: 99%
[3]; H5N1, A549, read-out: H5N1 pseudotype assay EC50 (μM)
  EC50: 0.24 ± 0.09 µM
[4]
  EC30: 134 nM
  EC40: 160 nM
  EC60: 219 nM
  EC70: 260 nM
  EC80: 321 nM
[4]; [9]
  EC50: 187 nM
  EC90: 439 nM
[5]
  percentage of compound remaining after 60 minutes: 94%
[6]
  EC50: 72 nM
[7]
  percentage of compound remaining after 60 minutes: 97%
[8]; 5x the dose p.o. (50 mg/kg), plasma
  Cmax: 7641 ng/mL
[8]; 5x the dose p.o. vs 10 mg/kg i.p., plasma
  Cmax p.o. relative to i.p. (fold higher): 7 ×
[8]; BALB/c mice, p.o. vs i.p. Cmax
  oral bioavailability: excellent oral bioavailability
[8]; BALB/c, mouse, plasma, intraperitoneal, oral
  Tmax: 30 min
[8]; i.p. (10 mg/kg), liver
  AUC(0-8 h): 66400 ng·h/g
  T1/2: 2.47 h
  Tmax: 15 min
[8]; i.p. (10 mg/kg), plasma
  AUC(0-8 h): 3282 ng·h/g
  T1/2: 1.53 h
  Tmax: 30 min
[8]; p.o. (50 mg/kg), liver
  AUC(0-8 h): 292000 ng·h/g
  T1/2: 2.58 h
  Tmax: 60 min
[8]; p.o. (50 mg/kg), plasma
  AUC(0-8 h): 23705 ng·h/g
  T1/2: 2.16 h
  Tmax: 30 min
[8]; read-out: Cmax level in the plasma, 10 mg/kg i.p.
  Cmax: 3.12 µM
